From patent US8722729B2, “Unsaturated fatty acid monoesters and diesters on ascorbic acid and cosmetic uses thereof” (Pierre Fabre Dermo-Cosmetique, priority 2009, dated 2014)

Tested on: Human dermal papilla cells
Experiment: In vitro stimulation of the proliferation of dermal papilla cells (BrdU incorporation)
Assay type: cell-based
Details: 12.5 μM; 60 h; best activity
Protocol: Human dermal papilla cells (Promocell) were placed in culture and held in early passage culture in DMEM medium supplemented with 10% FCS. They were then seeded in a 96-well plate in DMEM medium supplemented with 10% FCS for 12 h. The culture medium was replaced by serum-free DMEM medium then by DMEM supplemented with 1% FCS and molecules 1, 2, 3 and 4 at the different tested concentrations After incubation for 60 h, cell proliferation was evaluated by incorporation of BrdU.
The diagrams in appended FIG. 1 show the increase in BrdU incorporation and the stimulated cellular proliferation of the cells in the presence of the different molecules (as a percent of the control).

SMILES: CCCCC/C=C\C/C=C\CCCCCCCC(=O)OC1=C(OC(=O)CCCCCCC/C=C\C/C=C\CCCCC)C(C2COC(C)(C)O2)OC1=O (stereo not shown) [Molecule 1, diactodeca-9,12-dienoate of (9Z,9′Z,12Z,12′Z)-2-(2,2-dimethyl-1,3-dioxolan-4-yl)-5-oxo-2,5-dihydrofuran-3,4-diyl]
- Proliferation of the cells of the dermal papilla (percent of the control): 169%
